In patent US6017919A, “Compounds and pharmaceutical use thereof” (Japan Tobacco Inc., priority 1996, dated 2000):
Where a name gives a salt, the structure may show the parent alone. Read-outs that look alike come from different tables or passages of the source.

Experiments:
[1] = system: Sheep red blood cell-induced delayed type hypersensitivity; assay: Sheep red blood cell (SRBC)-induced delayed type hypersensitivity (DTH) model; format: in vivo, female ddy mice; details: Mus musculus, Erythrocyte; po, mice, 1 h before SRBC challenge; paw volume 24 h after induction
Description: [III] Sheep red blood cell (SRBC)-induced delayed type hypersensitivity (DTH) model (in vivo)
Female ddy mice (6-8 weeks old) were used. On day 1, SRBC 10^7 cells were intradermally injected into the left foot pad of the mice (40 μl/foot) to immunize the mice. Five days later, the test compounds dissolved in olive oil were orally administered at 10 ml/kg. One hour later, SRBC 10^8 cells were intradermally injected into the right foot pad to induce the response. Twenty-four hours after the induction, the volume of the both paws was measured, and edema ratio was calculated by […].
(§1) In both [II] and [III], the test compounds were dissolved in DMSO and used upon dilution with olive oil (final concentration of DMSO 1%).

[2] = molecular target: T1, cannabinoid central type (CB1) receptor (Rattus norvegicus, UniProt P20272); assay: Binding assay, cannabinoid central type receptor (CB1), rat cerebellar membrane fraction, [3H]Win55212-2
T1 construct: rat cerebellar membrane fraction and spleen cells were respectively used; from tissue; host or cells: rat cerebellar membrane fraction (male SD rats, 7-9 weeks old)
Description: (§2) [I] Binding Assay (in vitro)
(§3) As the sample rich in cannabinoid central type (CB1) and peripheral type (CB2) receptors, rat cerebellar membrane fraction and spleen cells were respectively used (male SD rats, 7-9 weeks old). A sample (cerebellar membrane fraction: 50 μg/ml or spleen cells: 1×10^7 cells/ml), labeled ligand ([^3 H]Win55212-2, 2 nM) and unlabeled Win55212-2 or a test compound were plated in round bottom 24 well plates, and incubated at 30° C. for 90 min in the case of cerebellar membrane fraction, and at 4° C. for 360 min in the case of spleen cells. As the assay buffer, 50 mM Tris solution containing 0.2% BSA was used for cerebellar membrane fraction, and 50 mM Tris-HBSS containing 0.2% BSA was used for spleen cells. After incubation, the samples were filtrated through a filter (Packard, Unifilter 24 GF/B) and dried. A scintillation solution (Packard, Microsint-20) was added, and the radioactivity of the samples was determined (Packard, Top count A9912V). The non-specific binding was determined by adding an excess Win55212-2 (1 μM), and specific binding was calculated by subtracting non-specific binding from the total binding obtained by adding the labeled ligand alone. The test compounds were dissolved in DMSO to the final concentration of DMSO of 0.1%. IC50 was determined from the proportion of the specifically-bound test compounds, and the Ki value of the test compounds was calculated from IC50 and Kd value of [^3 H]Win55212-2.

[3] = system: Carageenan-induced paw edema; assay: Carageenan-induced paw edema model; format: in vivo, female ddy mice; details: Mus musculus; po, mice, 1 h before carageenan; paw volume 3 h later
Description: [II] Carageenan-induced paw edema model (in vivo)
Female ddy mice (6-8 weeks old) were used. […] One hour after the administration, 50 μL of 1% carageenan dissolved in physiological saline was intradermally injected into the right foot pad. Three hours later, the volume of the right paw was measured and compared with that measured before the carageenan injection.
as §1

[4] = molecular target: T2, cannabinoid peripheral type (CB2) receptor (Rattus norvegicus, UniProt Q9QZN9); assay: Binding assay, cannabinoid peripheral type receptor (CB2), rat spleen cells, [3H]Win55212-2; details: for C/S: ratio of Ki central receptor (C) to Ki peripheral receptor (S)
T2 construct: rat cerebellar membrane fraction and spleen cells were respectively used; from tissue; host or cells: rat spleen cells (male SD rats, 7-9 weeks old)
T2 sequence (Q9QZN9 1-360): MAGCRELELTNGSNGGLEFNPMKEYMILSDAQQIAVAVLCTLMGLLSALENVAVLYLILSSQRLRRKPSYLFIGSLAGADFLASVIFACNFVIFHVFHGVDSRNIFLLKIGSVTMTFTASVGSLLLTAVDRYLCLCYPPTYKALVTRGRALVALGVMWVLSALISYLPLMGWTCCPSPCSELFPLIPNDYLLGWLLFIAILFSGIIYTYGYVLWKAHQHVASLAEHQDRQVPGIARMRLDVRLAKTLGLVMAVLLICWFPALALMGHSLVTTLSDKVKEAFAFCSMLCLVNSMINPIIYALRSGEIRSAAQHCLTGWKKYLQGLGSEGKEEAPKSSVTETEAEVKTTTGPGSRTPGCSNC
Description: as §2, §3

[5] = rat spleen cells, [3H]Win55212-2 2 nM, 4° C. 360 min, read-out: Ki value, Peripheral receptor (S)
[6] = rat cerebellar membrane fraction, [3H]Win55212-2 2 nM, 30° C. 90 min, read-out: Ki value, Central receptor (C)

T1 sequence (P20272 whole entry): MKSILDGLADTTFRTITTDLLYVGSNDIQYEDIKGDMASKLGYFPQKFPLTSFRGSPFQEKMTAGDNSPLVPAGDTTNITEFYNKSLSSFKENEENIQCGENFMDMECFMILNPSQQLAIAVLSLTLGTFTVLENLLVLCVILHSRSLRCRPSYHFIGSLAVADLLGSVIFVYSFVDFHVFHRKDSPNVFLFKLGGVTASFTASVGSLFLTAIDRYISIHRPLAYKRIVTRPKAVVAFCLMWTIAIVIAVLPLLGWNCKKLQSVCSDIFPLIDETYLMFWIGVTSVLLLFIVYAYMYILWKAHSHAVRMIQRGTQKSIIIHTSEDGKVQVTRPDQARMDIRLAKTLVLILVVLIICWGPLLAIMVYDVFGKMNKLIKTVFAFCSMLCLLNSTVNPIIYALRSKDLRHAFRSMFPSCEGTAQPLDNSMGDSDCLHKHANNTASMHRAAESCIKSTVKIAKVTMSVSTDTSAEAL

| Compound | ED50 [1] [mg/kg] | Ki [2] [nM] | ED50 [3] [mg/kg] | C/S [4] | Ki [4, 5] [nM] | Ki [2, 6] [nM] | Ki ([2]; read-out: Ki value, Central receptor (C), rat cerebellar membrane fraction, [3H]Win55212-2 2 nM, 30° C. 90 min) [nM] | Ki [4] [nM] |
| --- | --- | --- | --- | --- | --- | --- | --- | --- |
| CCCCCOc1cc(/C=C/C(=O)NCCc2ccc(O)cc2)ccc1OC [Example 1-1] | 1.52 | 230 | 1 | 48 |  |  |  |  |
| CCCCCOc1cc(/C=C/C(=O)NCCc2ccc(O)cc2)ccc1OCC [Example 1-2] | 0.48 | 400 | > 1 | 222 | 1.8 |  |  |  |
| CCCCOc1cc(/C=C/C(=O)NCCc2ccc(O)cc2)ccc1OC [Example 1-4] | 0.71 | 960 | 0.55 | 125 | 7.7 |  |  |  |
| CCCCCOc1cc(/C=C/C(=O)N[C@@H](Cc2ccc(O)cc2)C(=O)OC)ccc1OC [Example 1-22] | 0.77 | 480 | 0.14 | 343 | 1.4 |  |  |  |
| CCCCCSc1cc(/C=C/C(=O)NCCc2ccc(O)cc2)ccc1OC [Example 1-34, N-[2-(4-hydroxyphenyl)ethyl]-3-(4-methoxy-3-pentylthiophenyl)acrylamide] | 1.95 | 930 | 0.59 | 845 |  |  |  |  |
| CCCCCNc1cc(/C=C/C(=O)NCCc2ccc(N)cc2)ccc1OC [Example 1-35, N-[2-(4-aminophenyl)ethy]-3-(4methoxy-3-pentylaminophenyl)-acrylamide] | 0.063 | 160 | 0.12 | 16 | 10 |  |  |  |
| CCCCCOc1cc(C(=O)NCCc2ccc(O)cc2)ccc1OC [Example 2-1, N-[2-(4-hydroxyphenyl)ethyl]-(4-methoxy-3-pentyloxy)benzamide] | 0.14 |  | 0.04 | 560 |  | 1400 |  |  |
| CCCCCOc1cc(C(=O)NCCc2ccc(O)cc2)ccc1OCC [Example 2-2] | 0.9 | 1100 | 0.51 | 1000 | 1.1 |  |  |  |
| CCCCCOc1ccc(C(=O)NCCc2ccc(O)cc2)cc1OCCCCC [Example 2-3] | 0.053 | > 3300 | 0.17 | > 8250 |  |  |  |  |
| CCCCCNc1cc(C(=O)NCCc2ccc(O)cc2)ccc1OC [Example 2-6] | 0.72 |  | 0.3 | 455 | 1.1 |  | 500 |  |
| CCCCOc1cc(C(=O)NCCc2ccc(O)cc2)ccc1OC [Example 2-7] | 2.35 | > 2500 | 2.28 | 263 | 9.5 |  |  |  |
| CCCCCCOc1cc(C(=O)NCCc2ccc(O)cc2)ccc1OC [Example 2-8] | 1.45 | 1000 | 0.73 | 270 | 3.7 |  |  |  |
| CCCCCOc1cc(C(=O)NCCc2cccc(O)c2)ccc1OC [Example 2-13] | 5.6 | 5600 | 3.2 | 849 | 6.6 |  |  |  |
| CCCCCOc1cc(C(=O)NCCc2ccncc2)ccc1OC [Example 2-16] | 1.95 |  | 1.1 | > 59 |  | > 4300 |  |  |
| CCCCCOc1cc(C(=O)NC2CCc3cc(O)c(O)cc3C2)ccc1OC (stereo not drawn) [Example 2-26] | 3.75 | > 2500 | > 10 | > 139 |  |  |  |  |
| CCCCCOc1ccc(C(=O)NCCc2ccc(N)cc2)cc1SCCCCC [Example 2-52, N-[2-(4-aminophenyl)ethyl]4-pentyloxy-3-pentylthiobenzamide] | 0.58 | > 4300 | 1.85 | > 2300 |  |  |  |  |
| CCCCCOc1c(OC)ccc(C2=NC(C)(C)CO2)c1CO [Example 6-4] | 10 | 650 | 0.25 | 59 | 11 |  |  |  |
| CCCCCOc1c(OC)ccc2c1C(=O)N(CCc1ccc(O)cc1)C2=O [Example 7-4, 2-[2-(4-hydroxyphenyl)ethyl]-5-methoxy-4-pentyloxyisoindole-1,3-dione] | 1.6 |  | 1.6 | 137 |  | 1000 |  |  |
| CCCCCOc1c(OC)ccc2c1CN(CCc1ccc(O)cc1)C2=O [Example 7-5, 2-[2-(4-hydroxyphenyl)ethyl]-5-methoxy-4-pentyloxy-2,3-dihydroisoindol-1-one] | 0.038 | > 2500 | 0.014 | > 227 |  |  |  |  |
| CCCCCOc1c(OC)ccc2c(=O)n(CCc3ccc(O)cc3)ccc12 [Example 7-19-1] | 0.033 |  | 0.092 | 54 |  | 200 |  |  |
| CCCCCOc1c(OC)ccc2c(=O)n(CCc3ccncc3)ccc12 [Example 7-20] | 0.084 |  | 0.195 | 48 |  | 400 |  |  |
| CCCCCOc1c(OC)ccc2c1CCN(CCc1ccc(O)cc1)C2=O [Example 7-24, 2-[2-(4-hydroxyphenyl)ethyl]-6-methoxy-5-pentyloxy-3,4dihydro-2H-isoquinolin-1-one] | 0.027 | > 2500 | 0.028 | > 1389 |  |  |  |  |
| CCCCCOc1ccc2c(c1OCCCCC)CN(CCc1ccc([N+](=O)[O-])cc1)C2=O [Example 7-30, 4,5-dipentyloxy-2-[2-(4-nitrophenyl)ethyl]-2,3-dihydroisoindol-1-one] | 0.021 | 2600 | < 0.01 | 1440 | 1.8 |  |  |  |
| CCCCCNc1c(OC)ccc2c1CN(CCc1ccc(O)cc1)C2=O [Example 7-31, 2-[2-(4-hydroxyphenyl)ethyl]-5-methoxy-4-pentylamino-2,3-dihydroindol-1-one] | 0.08 | 11 | 0.012 | 125 |  |  |  |  |
| CCCCCOc1ccc2c(c1OCCCCC)CN(CCc1ccc(N)cc1)C2=O [Example 7-34, 2-[2-(4-aminophenyl)ethyl]-4,5-bispentyloxy-2,3-dihydroisoindol-1-one] | 0.012 | 330 | 0.29 | 3000 |  |  |  |  |
| CCCCCOc1c(OC)ccc2c1CN(CCc1ccc(N)cc1)C2=O [Example 7-37, 2-[2-(4-aminophenyl)ethyl]-5-methoxy-4-pentyloxy-2,3-dihydroisoindol-1-one] | 0.058 |  | 0.49 | 93 |  | 1300 |  |  |
| CCCCCOc1c(OC)ccc2c1CCN(CCc1ccc(N)cc1)C2=O [Example 7-38, hydrochloride] | 0.011 | 220 | 0.11 | 22 |  |  |  | 9.9 |
| CCCCCOc1c(OC)ccc2c(=O)n(CCc3ccc(N)cc3)c(=O)[nH]c12 [Example 7-40, 3-[2-(4-aminophenyl)ethyl]-7-methoxy-8-pentyloxy-1H-quinazoline-2,4-dione] |  | 109 | 0.016 | > 30 | < 3.7 |  |  |  |
| CCCCCOc1cc(OC)ccc1/C=C/C(=O)N1CCOCC1 [Example 8-2, (E)-[3-(4-methoxy-2-pentyloxyphenyl)-1-oxo-2-propenyl]-4-morpholine] | > 10 | 560 | 0.5 | 67 | 8.4 |  |  |  |
